Assay results taken from US5609749A, “Electrochemical assay method with novel p-phenylenediamine compound” (Mochida Pharmaceutical Co., Ltd., priority 1993, dated 1997).

Columns and labels:
[1] = Measurement of vapor pressures (gas flow method); format: physicochemical; details: for vapor pressure: gas flow method
Protocol: Measurement of vapor pressures of p-phenylenediamine(PPD), N,N,N',N'-tetramethyl-p-phenylenediamine (TMPD), TEPD, TCPD, THEPD and TDHPD
The PPD(manufactured by Wakoh Junyaku K.K), TMPD (manufactured by Tokyo Kasei K.K), further, TEPD, TCPD, THEPD and TDHPO obtained in the course of the procedures of Synthesis Examples 1 to 4 were checked for their vapor pressures.
Vapor densities (amount of evaporation/volume) of the solid samples (PPD, TMPD, TEPD, TCPD, THEPD and TDHPD) were measured by contacting each sample heated to a predetermined temperature with a stream of carrier gas (nitrogen) and saturating the sample with vapor, and vapor pressures of TEPD and THEPD were calculated from the data on an assumption that the vapor follows the law of ideal gas (gas flow method). The vapor density was calculated by measuring evaporation rate (loss rate) of each sample using an electric balance, and the carrier gas flow rate using a flow meter.
The vapor pressure was calculated from the vapor density based on the following formula.
In the above formula, P represents vapor pressure (mmHg), k represents evaporation rate (mg/min), v represents carrier gas flow rate (ml/min), k/v represents vapor density (mg/ml), M represents molecular weight of each sample, π represents pressure of the system (mmHg) and V represents molar volume of carrier gas (l/mol).

[2] = tested on: hCG; assay: Measurement of hCG in whole blood with specific binding assay device (MEDIA method), freeze-dried electron mediator member; set-up: species or system human; details: hCG 0 vs 1,000 IU/l whole blood, -150 mV
Protocol: The specific binding assay device shown in FIGS. 2 and 3 was constructed, and concentration of hCG in samples was measured using the device. The HRPO-HM81 obtained in the above step (1) was diluted with a phosphate buffer (pH 6.0) containing 5% normal rabbit serum (NRS), 10% saccharose and 0.1M NaCl to prepare a solution having a peroxidase activity of 0.63 U/ml. Next, 140 μl of the solution was spotted on a circular filter paper piece of 12 mm in diameter punched out from glass fiber filter paper (GA100, manufactured by Advantech Toyo) and then freeze-dried to obtain an HRPO-HM81 freeze-dry member to be used as the labeled antibody-impregnatedmember 14. The THEPD obtained in Synthesis Example 3 was dissolved in a phosphate buffer (pH 6.0) containing 0.1M NaCl to prepare a 5.0 mM solution. Next, 140 μl of the solution was spotted on a circular filter paper piece of 12 mm in diameter punched out from glass fiber filter paper (GA100, manufactured by Advantech Toyo) and then freeze-dried to obtain a THEPD freeze-dry member to be used as the electron mediator-impregnated member 16 of the present invention. The TEPD obtained in Synthesis Example 1 was dissolved in a phosphate buffer (pH 6.0) containing 1M NaCl to prepare a 5.0 mM solution. […]

| SMILES | vapor pressure ([1]; at 25° C.) | electric current response to hCG concentration [2] | vapor pressure lower than that of TEPD ([1]; at 25° C.) | property in drying (freeze-drying, vacuum drying, air-drying) and stability of dried states ([1]; compared with PPD, TMPD and TEPD, concluded from vapor pressures) |
| --- | --- | --- | --- | --- |
| CCN(CC)c1ccc(N(CC)CC)cc1.Cl.Cl [TEPD, N,N,N',N'-tetraethyl-p-phenylenediamine dihydrochloride, reference compound] | 4.2×10^-4 mmHg | the electric current did not increase in response to the concentration of hCG | – | – |
| Cl.Cl.OCCN(CCO)c1ccc(N(CCO)CCO)cc1 [THEPD, N,N,N',N'-tetrakis-(2'-hydroxyethyl)-p-phenylenediamine dihydrochloride] | 1.3×10^-6 mmHg | the reduction current became high in response to the concentration of hCG | about 300 times | superior to those of PPD, TMPD and TEPD |
